Assay results as given in patent publication US20230053540A1, “TREATMENT OF LIVER INJURY” (Massachusetts Institute of Technology, priority 2019, published 2023).

System: hepatocytes
Assay: Seq-Well scRNA-Seq of hepatocytes after APAP overdose (signature scores, DEG vs untreated)
Type: in vivo, mouse
Settings: cluster A6 (APAP 6 hr)

## CC(=O)Nc1ccc(O)cc1 [APAP, acetaminophen]
  Iigp1 pct.1: 0.78
  Il1b avg_logFC: 0.7365
  Il1b pct.1: 0.236
  Il1r1 avg_logFC: 0.845
  Il1r1 pct.1: 0.683
  Insig2 avg_logFC: 0.6834
  Insig2 pct.1: 0.854
  Iqgap1 avg_logFC: 0.4345
  Iqgap1 pct.1: 0.162
  Itgb2 avg_logFC: 0.2628
  Itgb2 pct.1: 0.105
  Itih2 avg_logFC: 0.3109
  Itih2 pct.1: 0.893
  Jak1 avg_logFC: 0.4696
  Jak1 pct.1: 0.554
  Jmjd1c avg_logFC: 0.5262
  Jmjd1c pct.1: 0.47
  Klf6 avg_logFC: 0.6123
  Klf6 pct.1: 0.382
  Krt8 avg_logFC: 1.204
  Krt8 pct.1: 0.826
  Krt18 avg_logFC: 1.118
  Krt18 pct.1: 0.864
  Laptm5 avg_logFC: 0.3169
  Laptm5 pct.1: 0.124
  Lars2 avg_logFC: 0.5887
  Lars2 pct.1: 1
  Lgmn avg_logFC: 0.4368
  Lgmn pct.1: 0.246
  Lmo4 avg_logFC: 0.2923
  Lmo4 pct.1: 0.308
  Lpin2 avg_logFC: 0.5227
  Lpin2 pct.1: 0.745
  Lrrc58 avg_logFC: 0.9243
  Lrrc58 pct.1: 0.711
  Lyst avg_logFC: 0.3767
  Lyst pct.1: 0.31
  Lyz2 avg_logFC: 0.6523
  Lyz2 pct.1: 0.234
  Maff avg_logFC: 0.3314
  Maff pct.1: 0.224
  Malat1 avg_logFC: 1.108
  Malat1 pct.1: 0.871
  Map2k3 avg_logFC: 0.3952
  Map2k3 pct.1: 0.427
  Mat1a avg_logFC: 0.3317
  Mat1a pct.1: 0.986
  Mat2a avg_logFC: 0.4693
  Mat2a pct.1: 0.487
  Mdn1 avg_logFC: 0.2931
  Mdn1 pct.1: 0.251
  Mfsd2a avg_logFC: 0.4232
  Mfsd2a pct.1: 0.465
  Mmp8 avg_logFC: 0.3585
  Mmp8 pct.1: 0.136
  Mmp14 avg_logFC: 0.2594
  Mmp14 pct.1: 0.253
  Mrap avg_logFC: 0.8261
  Mrap pct.1: 0.606
  Mrc1 avg_logFC: 0.3063
  Mrc1 pct.1: 0.131
  Msn avg_logFC: 0.251
  Msn pct.1: 0.105
  Mt1 avg_logFC: 0.9315
  Mt1 pct.1: 0.981
  Mt2 avg_logFC: 0.6647
  Mt2 pct.1: 0.938
  Mthfd2 avg_logFC: 0.26
  Mthfd2 pct.1: 0.205
  Myh9 avg_logFC: 0.8661
  Myh9 pct.1: 0.718
  Myl12a avg_logFC: 0.3937
  Myl12a pct.1: 0.461
  Myo1e avg_logFC: 0.4916
  Myo1e pct.1: 0.475
  Ncl avg_logFC: 0.4292
  Ncl pct.1: 0.69
  Neat1 avg_logFC: 0.6234
  Neat1 pct.1: 0.31
  Nid1 avg_logFC: 0.3315
  Nid1 pct.1: 0.229
  Nolc1 avg_logFC: 0.4084
  Nolc1 pct.1: 0.363
  Nop56 avg_logFC: 0.2507
  Nop56 pct.1: 0.282
  Nop58 avg_logFC: 0.5859
  Nop58 pct.1: 0.492
  Phc2 avg_logFC: 0.3092
  Phc2 pct.1: 0.284
  Picalm avg_logFC: 0.6425
  Picalm pct.1: 0.647
  Pigr avg_logFC: 0.2627
  Pigr pct.1: 0.947
  Pla2g7 avg_logFC: 0.2737
  Pla2g7 pct.1: 0.119
  Plek avg_logFC: 0.3031
  Plek pct.1: 0.11
  Plin2 avg_logFC: 1.276
  Plin2 pct.1: 0.943
  Plscr1 avg_logFC: 0.4343
  Plscr1 pct.1: 0.329
  Ppan avg_logFC: 0.2655
  Ppan pct.1: 0.255
  Ppl avg_logFC: 0.8287
  Ppl pct.1: 0.47
  Psat1 avg_logFC: 0.3001
  Psat1 pct.1: 0.229
  Ptprc avg_logFC: 0.4072
  Ptprc pct.1: 0.153
  Rad54l2 avg_logFC: 0.3366
  Rad54l2 pct.1: 0.325
  Ranbp2 avg_logFC: 0.4808
  Ranbp2 pct.1: 0.566
  Rcan1 avg_logFC: 0.5727
  Rcan1 pct.1: 0.425
  Rell1 avg_logFC: 0.577
  Rell1 pct.1: 0.375
  Retnlg avg_logFC: 0.3746
  Retnlg pct.1: 0.129
  Retsat avg_logFC: 0.4801
  Retsat pct.1: 0.845
  Rgs2 avg_logFC: 0.3802
  Rgs2 pct.1: 0.138
  Rnf144a avg_logFC: 0.3119
  Rnf144a pct.1: 0.177
  Rock2 avg_logFC: 0.5525
  Rock2 pct.1: 0.425
  Rora avg_logFC: 0.5514
  Rora pct.1: 0.549
  S100a8 avg_logFC: 1.116
  S100a8 pct.1: 0.353
  S100a9 avg_logFC: 1.336
  S100a9 pct.1: 0.399
  Sat1 avg_logFC: 0.6622
  Sat1 pct.1: 0.47
  Sdad1 avg_logFC: 0.2844
  Sdad1 pct.1: 0.289
  Sdc3 avg_logFC: 0.318
  Sdc3 pct.1: 0.103
  Sdc4 avg_logFC: 0.4415
  Sdc4 pct.1: 0.909
  Serpina3m avg_logFC: 0.6067
  Serpina3m pct.1: 0.85
  Slc16a6 avg_logFC: 0.864
  Slc16a6 pct.1: 0.47
  Slc39a14 avg_logFC: 0.6721
  Slc39a14 pct.1: 0.678
  Son avg_logFC: 0.4342
  Son pct.1: 0.601
  Spred1 avg_logFC: 0.3351
  Spred1 pct.1: 0.308
  Sqstm1 avg_logFC: 0.6817
  Sqstm1 pct.1: 0.859
  Srgn avg_logFC: 0.926
  Srgn pct.1: 0.284
  Srxn1 avg_logFC: 1.874
  Srxn1 pct.1: 0.821
  St3gal1 avg_logFC: 0.4344
  St3gal1 pct.1: 0.473
  Stat3 avg_logFC: 0.4846
  Stat3 pct.1: 0.604
  Stk17b avg_logFC: 0.2825
  Stk17b pct.1: 0.126
  Stk40 avg_logFC: 0.4875
  Stk40 pct.1: 0.382
  Tars avg_logFC: 0.4768
  Tars pct.1: 0.666
  Tatdn2 avg_logFC: 0.309
  Tatdn2 pct.1: 0.334
  Tbc1d15 avg_logFC: 0.42
  Tbc1d15 pct.1: 0.461
  Tcerg1 avg_logFC: 0.3358
  Tcerg1 pct.1: 0.305
  Tiparp avg_logFC: 0.427
  Tiparp pct.1: 0.346
  Tjp2 avg_logFC: 0.403
  Tjp2 pct.1: 0.332
  Tmem87b avg_logFC: 0.3486
  Tmem87b pct.1: 0.351
  Tmsb4x avg_logFC: 0.7051
  Tmsb4x pct.1: 0.332
  Tnfrsf1a avg_logFC: 0.4533
  Tnfrsf1a pct.1: 0.508
  Tnfrsf12a avg_logFC: 1.081
  Tnfrsf12a pct.1: 0.623
  Tra2a avg_logFC: 0.6917
  Tra2a pct.1: 0.337
  Trp53inp1 avg_logFC: 0.8389
  Trp53inp1 pct.1: 0.637
  Tsc22d2 avg_logFC: 0.3382
  Tsc22d2 pct.1: 0.353
  Tsku avg_logFC: 0.3206
  Tsku pct.1: 0.327
  Tsr1 avg_logFC: 0.314
  Tsr1 pct.1: 0.341
  Tubb2a avg_logFC: 0.7838
  Tubb2a pct.1: 0.618
  Tubb6 avg_logFC: 0.533
  Tubb6 pct.1: 0.368
  Txnrd1 pct.1: 0.838
  Tyrobp avg_logFC: 0.4431
  Tyrobp pct.1: 0.189
